According to patent publication US8150136B2, “Image based quantitation of molecular translocation” (Amnis Corporation, priority 2005, dated 2012):

Test system: NF-κB nuclear translocation in THP-1 cells
Assay: LPS-induced nuclear translocation of NF-κB in THP-1 cells, multispectral imaging flow cytometry (ImageStream), NF-κB/7-AAD Similarity
Format: cell-based, human
Protocol: Untreated (a) and LPS treated (b) THP-1 cells were prepared as described in FIG. 4 and imaged in flow using the ImageStream 100 platform. […] Each gated population has an associated image gallery that can be visually inspected. The image galleries here display the NF-κB image adjacent to a composite image (green NF-κB/red 7-ADD) for each object within a given population.
In order to quantitate the extent of NF-κB nuclear translocation in A-549 cells treated with TNF-α/IL-β, the degree of pixel intensity between the NF-κB and nuclear images of cell within a masked region of interest was analyzed. The NF-κB image of a cell with a high degree of translocation will look qualitatively similar to the nuclear image of that cell, resulting in a high degree of correlation between the two images. In contrast, the NF-κB image of a cell without any translocation will have little signal in the nuclear space, resulting in an inverse correlation with the nuclear image. […] Two features were calculated, the correlation coefficient (ρ) and, in this case, similarity is calculated as a logarithmic transformation of ρ, which features are represented by the following formula, respectively: ρ(X,Y)=Cov(X,Y)/(σX σY) Similarity=ln(1+ρ)/(1−ρ) As set forth herein, ρ measures the degree to which the spatial distribution of intensities over two separate images is correlated, with a range from −1 (inverse correlation) to +1 (complete correlation). Here, similarity values range from −∞ to +∞, allowing standard statistical comparisons (means and standard deviations) between groups to be made. Histogram overlays of NF-κB/7-AAD correlation and similarity allows the differentiation of untreated (green) A-549 cells from TNF-α/IL-1β treated (red) A-549 cells. As described herein, the fidelity of these classifiers can be validated by inspection of the image galleries of the cells. Mask Determination
By way of background and […], NF-κB resides predominantly in the cytoplasm in resting cells. Activating treatments (e.g., IL-1β/TNF-α or LPS) induce NF-κB translocation into the nucleus in responsive cell types. Thus, the ratio of nuclear to cytoplasmic NF-κB increases with LPS treatment. Similar to the A-549 cells, NF-κB is translocated from the cytoplasm to the nucleus when the non-adherent human monocyte cell line, THP-1, is exposed to lipopolysaccharide (LPS). […] A nuclear and NF-κB pixel signal correlation analysis CCF was used to quantitate the difference between untranslocated NF-κB and NF-κB translocated to the cell nucleus. The CCF distinguished location-specific (nuclear and cytoplasmic) quantitation of NF-κB to distinguish LPS-treated from untreated THP-1 cells. Thus, the methods of the present disclosure may also be used with non-adherent cells and cell lines.
Human monocyte cell line THP-1, obtained from ATCC (Rockville, Md.), were maintained in RPMI 1640 (Gibco, Grand Island, N.Y.) containing 5% fetal bovine serum, 1 mM sodium pyruvate (Mediatech, Herndon, Va.), 100 μM nonessential amino acids, 100 U/ml penicillin, 100 μg/ml streptomycin, and 2 mM L-glutamine (BioWhittaker, Walkersville, Md.) in 5% CO2 atmosphere at 37° C. The density of exponentially growing cells was less than 3×10^5 cells per ml at the time of all treatments. To induce NF-κB translocation into the nucleus from the cytoplasm, cells were treated for 1 hr with LPS.
The following is the experimental procedure for LPS-induced Nuclear Translocation of NF-κB in THP-1 cells. […]

Substance: Lipopolysaccharide [LPS]
- NF-κB/7-AAD Similarity value (median similarity value) of translocated cells (LPS treated THP-1 cells, 'High Similarity' (translocated) gated population, untreated: 2.98 +/−0.35): 3.35 +/−0.48
- NF-κB/7-AAD Similarity value of untranslocated cells (LPS treated THP-1 cells, 'Low Similarity' (untranslocated) gated population, untreated: −1.36 +/−0.84): −0.76 +/−0.64
- percentage of Medium Similarity cells (LPS treated THP-1 cells, diffuse NF-κB staining pattern, untreated 3.6%): 27.6%
- percentage of NF-κB-translocated cells (LPS treated THP-1 cells, untreated 0.71%): 44.6%
- nuclear localization of NF-κB by CCF, treated versus untreated cells (THP-1 cells, LPS-treated vs untreated): a quantifiable difference in the nuclear localization NF-κB is demonstrated
